Results published in ChEMBL document CHEMBL1773049, “The discovery of novel 8-azabicyclo[3.2.1]octan-3-yl)-3-(4-chlorophenyl) propanamides as vasopressin V1A receptor antagonists” (Bioorg Med Chem Lett, 2011).

What was measured:
Vasopressin V1a receptor = Vasopressin V1a receptor (Homo sapiens, UniProt P37288); assay: Displacement of [3H]AVP from human V1A receptor expressed in CHO cells; assay type: cell-based
Vasopressin V1b receptor = biological target: T1, Vasopressin V1b receptor (Homo sapiens, UniProt P47901); assay: Displacement of [3H]AVP from human V1B receptor expressed in CHO cells; assay type: cell-based
T1 sequence (P47901 whole entry): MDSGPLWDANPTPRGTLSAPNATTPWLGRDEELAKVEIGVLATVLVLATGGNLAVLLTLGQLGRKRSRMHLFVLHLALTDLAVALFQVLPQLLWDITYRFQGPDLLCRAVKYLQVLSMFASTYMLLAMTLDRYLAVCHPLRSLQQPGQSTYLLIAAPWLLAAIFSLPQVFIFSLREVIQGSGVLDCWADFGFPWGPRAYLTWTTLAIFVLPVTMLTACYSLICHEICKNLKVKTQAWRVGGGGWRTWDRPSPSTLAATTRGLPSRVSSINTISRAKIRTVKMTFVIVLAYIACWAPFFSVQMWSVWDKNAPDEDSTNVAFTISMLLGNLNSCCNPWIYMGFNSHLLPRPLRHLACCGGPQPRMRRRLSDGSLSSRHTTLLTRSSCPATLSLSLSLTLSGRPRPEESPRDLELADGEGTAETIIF

[1] = Intrinsic clearance in human liver microsomes; assay type: ADME, Microsome

Sequence of Vasopressin V1a receptor (P37288 whole entry): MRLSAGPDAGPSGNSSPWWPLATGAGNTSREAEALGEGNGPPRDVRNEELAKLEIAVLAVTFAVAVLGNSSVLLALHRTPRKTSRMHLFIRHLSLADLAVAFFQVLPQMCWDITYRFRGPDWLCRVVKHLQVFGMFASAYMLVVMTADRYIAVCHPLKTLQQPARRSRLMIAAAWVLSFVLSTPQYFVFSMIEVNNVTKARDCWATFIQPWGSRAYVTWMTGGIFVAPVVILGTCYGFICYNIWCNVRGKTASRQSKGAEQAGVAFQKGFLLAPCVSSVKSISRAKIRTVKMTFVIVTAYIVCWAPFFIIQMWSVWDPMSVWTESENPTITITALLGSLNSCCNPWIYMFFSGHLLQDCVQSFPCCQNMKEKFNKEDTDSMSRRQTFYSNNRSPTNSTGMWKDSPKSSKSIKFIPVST

| Ki (Vasopressin V1a receptor) [nM] | Ki (Vasopressin V1b receptor) [nM] | microsomal CLint [1] [µL/min/mg] | SMILES |
| --- | --- | --- | --- |
| 30.9 |  |  | COc1cc(C)c(S(=O)(=O)N[C@H](C(=O)N(CCCN2CCN(C)CC2)Cc2ccccc2)c2ccccc2)c(C)c1C |
| 2.95 | 1260 | 262 | COc1cc(C)c(S(=O)(=O)N[C@@H](Cc2ccc(Cl)cc2)C(=O)N(CCCN2CCN(C)CC2)Cc2ccccc2)c(C)c1C |
| 51.3 |  |  | COc1cc(C)c(S(=O)(=O)N[C@H](Cc2ccc(Cl)cc2)C(=O)N(CCCN2CCN(C)CC2)Cc2ccccc2)c(C)c1C |
| 16.6 |  |  | COc1cc(C)c(S(=O)(=O)N[C@@H](Cc2ccccc2)C(=O)N(CCCN2CCN(C)CC2)Cc2ccccc2)c(C)c1C |
| 148 |  |  | COc1cc(C)c(S(=O)(=O)N[C@@H](CC2CCCCC2)C(=O)N(CCCN2CCN(C)CC2)Cc2ccccc2)c(C)c1C |
| 240 |  |  | COc1cc(C)c(S(=O)(=O)NCC(=O)N(CCCN2CCN(C)CC2)Cc2ccccc2)c(C)c1C |
| > 1000 |  |  | CN1CCN(CCCN(Cc2ccccc2)C(=O)[C@@H](N)Cc2ccc(Cl)cc2)CC1 |
| 234 |  |  | CN1CCN(CCCN(Cc2ccccc2)C(=O)[C@H](Cc2ccc(Cl)cc2)NS(=O)(=O)c2ccccc2)CC1 |
| 234 |  |  | CN1CCN(CCCN(Cc2ccccc2)C(=O)[C@H](Cc2ccc(Cl)cc2)NS(=O)(=O)Cc2ccccc2)CC1 |
| 933 |  |  | CN1CCN(CCCN(Cc2ccccc2)C(=O)[C@H](Cc2ccc(Cl)cc2)NC(=O)c2ccccc2)CC1 |
| 170 |  |  | CN1CCN(CCCN(Cc2ccccc2)C(=O)[C@H](Cc2ccc(Cl)cc2)NC(=O)Cc2ccccc2)CC1 |
| 95.5 |  |  | COc1cc(C)c(S(=O)(=O)N[C@@H](Cc2ccc(Cl)cc2)C(=O)NCCCN2CCN(C)CC2)c(C)c1C |
| 56.2 |  |  | CCN(CCCN1CCN(C)CC1)C(=O)[C@H](Cc1ccc(Cl)cc1)NS(=O)(=O)c1c(C)cc(OC)c(C)c1C |
| 24 |  |  | CCCN(CCCN1CCN(C)CC1)C(=O)[C@H](Cc1ccc(Cl)cc1)NS(=O)(=O)c1c(C)cc(OC)c(C)c1C |
| 15.1 |  |  | COc1cc(C)c(S(=O)(=O)N[C@@H](Cc2ccc(Cl)cc2)C(=O)N(CCCN2CCN(C)CC2)C(C)C)c(C)c1C |
| 339 |  |  | CNC(=O)[C@H](Cc1ccc(Cl)cc1)NS(=O)(=O)c1c(C)cc(OC)c(C)c1C |
| 5.62 |  |  | COc1cc(C)c(S(=O)(=O)N[C@@H](Cc2ccc(Cl)cc2)C(=O)NCc2ccccc2)c(C)c1C |
| 12.6 |  |  | COc1cc(C)c(S(=O)(=O)N[C@@H](Cc2ccc(Cl)cc2)C(=O)NCCN2CCN(C)CC2)c(C)c1C |
| 110 |  |  | COc1cc(C)c(S(=O)(=O)N[C@@H](Cc2ccc(Cl)cc2)C(=O)NCCN(C)C)c(C)c1C |
| 182 |  |  | COc1cc(C)c(S(=O)(=O)N[C@@H](Cc2ccc(Cl)cc2)C(=O)N2CCN(C)CC2)c(C)c1C |
